Patent US20240368149A1, “ANALOGS OF XANOMELINE” (Terran Biosciences Inc., priority 2023, published 2024)
Read-outs that look alike come from different tables or passages of the source.

Columns and labels:
[1] = Rat PK: plasma prodrug concentration after intramuscular (IM) dosing of xanomeline prodrugs at 5 mg/kg (Example A-4); format: in vivo, male Sprague-Dawley (SD) rats; conditions: male, Sprague-Dawley, IM 5 mg/kg of xanomeline, Mean
Description: (§1) • Step 1: A stock solution of the compound(s) were prepared to 1 mg/ml in DMSO • Step 2: A 10,000 ng/mL matched matrix standard was prepared using the stock solution(s) • Step 3: Calibration standards in matched matrix were prepared between 10,000 ng/ml and 0.5 ng/mL using serial dilution • Step 4: QC samples were prepared in matched matrix at 4000, 800, 400, 40 and 10 ng/mL
(§2) • Step 1: Add 10 μL of the standards, QCs and samples to a 96-well plate (extraction plate) • Step 2: To each standard, QC and test sample, add 100 μL of ISZ • Step 3: Sonicate for 2 min then mix the plate for approximately 2 min at 1200 rpm on a plate shaker • Step 4: Centrifuge the plate at 3000 rpm for 5 min • Step 5: Add 50 μL 0.1% formic acid in UP H2O to wells of a new 96-well plate • Step 6: Transfer 50 μL extracted sample to relevant position in second 96-well plate • Step 7: Mix at 1200 rpm for 2 min • Step 8: Heat seal and analyse on the LC-MS/MS system • Instrument: Xevo TQ-D with CTC Autosampler
(§3) Samples were sent for method optimization and measurement of prodrug via unique calibration lines and following acceptance QC's. Dose formulation concentrations were also measured, and PK parameters were determined (Cmax (ng/mL), Tmax (hr), Cl (ml/min/kg), Vdss (L/kg), t½ (hr), AUC0-t (ng/mL*hr), AUC0-inf (ng/mL*hr), MRT (hr), Bioavailability (% F) where warranted) using WinNon Lin software. Data (including bioanalytical results and assay performance) were reported in a tabulated format and QC'd.
Formulation for IM administration: All compounds were formulated as solutions or fine suspensions in saline at 12.5 mg API/mL. This provided doses of 5 mg/kg (equivalent of xanomeline) when given to a 250 g rat in a 100 μL dosing volume.
The pharmacokinetic properties of the synthesized xanomeline prodrugs after intramuscular administration in a rat model were assessed. The concentration of prodrug was measured in each rat at various sampling timepoints after intramuscular administration of the synthesized xanomeline prodrugs to rats.
Dose formulations were made at equivalent concentrations of active compound (xanomeline) adjusted for molecular weight of the compounds. The synthesized xanomeline prodrugs were dosed at 5 mg/kg intramuscular (IM) nominal dose. Nominal doses were used in PK parameter determinations.

[2] = Rat PK: plasma prodrug concentration after intravenous (IV) dosing of xanomeline prodrugs at 1 mg/kg (Example A-6); format: in vivo, male Sprague-Dawley (SD) rats; conditions: male, Sprague-Dawley, IV 1 mg/kg of xanomeline; for concentration at 0.5 h: 0.500 h; for concentration at 0.75 h: 0.750 h
Description: as §1, §2, §3
Compound was dissolved in DMSO:HPCD (20% w/v in water) [10:90] 0.5 mg API/mL to provide doses of 1 mg/kg when administered IV in a 2 mL/kg dosing volume.
The pharmacokinetic properties of the synthesized xanomeline prodrugs after intravenous administration in a rat model were assessed. The concentration of prodrug was measured in each rat at various sampling timepoints after intravenous administration of the synthesized xanomeline prodrugs to rats.
Dose formulations were made at equivalent concentrations of active compound (xanomeline) adjusted for molecular weight of the compounds. The synthesized xanomeline prodrugs were dosed at 1 mg/kg intravenous (IV) nominal dose. Nominal doses were used in PK parameter determinations.

[3] = iv, 1 mg/kg, Mean, read-out: Prodrug Plasma Concentrations Following Intravenous Dosing
[4] = iv, 1 mg/kg, individual animals, read-out: Prodrug Plasma Concentrations Following Intravenous Dosing

CCCCCCOc1nsnc1C1=CCC[N+](C)(C(CC)OC(=O)C(C)(C)C)C1 (stereo not drawn) [Compound 352]
Tmax ([1]; analyte prodrug): 30 min
concentration at 2 h ([1]; intramuscular, 5 mg/kg, 2.00 h, read-out: Prodrug Plasma Concentrations Following Intramuscular Dosing): 71.3 ng/mL
concentration at 4 h ([1]; intramuscular, 5 mg/kg, 4.00 h, read-out: Prodrug Plasma Concentrations Following Intramuscular Dosing): 33.4 ng/mL
concentration at 8 h ([1]; intramuscular, 5 mg/kg, 8.00 h, read-out: Prodrug Plasma Concentrations Following Intramuscular Dosing): 18.6 ng/mL
Tmax ([2]; analyte prodrug, individual animals): 15 min
concentration at 0.25 h ([2]; iv, 1 mg/kg, 0.250 h, Mean, read-out: Prodrug Plasma Concentrations Following Intravenous Dosing): 33.2 ng/mL
concentration at 0.5 h [2, 3]: 12.9 ng/mL
concentration at 0.5 h [2, 4]: 10.3 ng/mL
concentration at 0.75 h [2, 3]: 6.01 ng/mL
concentration at 0.75 h [2, 4]: 6.01 ng/mL
concentration at 1 h [2, 3]: 5.37 ng/mL
concentration at 1 h [2, 4]: 5.58 ng/mL
Cmax ([2]; iv, 1 mg/kg, analyte prodrug, Mean): 33.2 ng/mL
AUC(0-inf) ([2]; iv, 1 mg/kg, analyte prodrug, Mean, read-out: Prodrug AUCINF_obs): 44.4 ng·h/mL
AUC(0-t) ([2]; iv, 1 mg/kg, analyte prodrug, Mean, read-out: Prodrug AUClast): 42.4 ng·h/mL
